One test relates to A. baumannii CDC-0045. The experiment in a line: microbe, parasite or virus in culture. In kind it is cell-based. Particulars: Acinetobacter baumannii, CDC0045, read-out: MIC, A. baumannii CDC-0045.
In another test the test system is A. baumannii ATCC 17978. The test can be described thus: microbe, parasite or virus in culture. In kind it is cell-based. Particulars: Acinetobacter baumannii, ATCC17978, read-out: MIC, A. baumannii ATCC 17978.
The target of test [1] is T1, PBP1a from Acinetobacter baumannii (ATCC 19606) (Acinetobacter baumannii, UniProt A0ABX6CK30).
T1 sequence (A0ABX6CK30 1-851): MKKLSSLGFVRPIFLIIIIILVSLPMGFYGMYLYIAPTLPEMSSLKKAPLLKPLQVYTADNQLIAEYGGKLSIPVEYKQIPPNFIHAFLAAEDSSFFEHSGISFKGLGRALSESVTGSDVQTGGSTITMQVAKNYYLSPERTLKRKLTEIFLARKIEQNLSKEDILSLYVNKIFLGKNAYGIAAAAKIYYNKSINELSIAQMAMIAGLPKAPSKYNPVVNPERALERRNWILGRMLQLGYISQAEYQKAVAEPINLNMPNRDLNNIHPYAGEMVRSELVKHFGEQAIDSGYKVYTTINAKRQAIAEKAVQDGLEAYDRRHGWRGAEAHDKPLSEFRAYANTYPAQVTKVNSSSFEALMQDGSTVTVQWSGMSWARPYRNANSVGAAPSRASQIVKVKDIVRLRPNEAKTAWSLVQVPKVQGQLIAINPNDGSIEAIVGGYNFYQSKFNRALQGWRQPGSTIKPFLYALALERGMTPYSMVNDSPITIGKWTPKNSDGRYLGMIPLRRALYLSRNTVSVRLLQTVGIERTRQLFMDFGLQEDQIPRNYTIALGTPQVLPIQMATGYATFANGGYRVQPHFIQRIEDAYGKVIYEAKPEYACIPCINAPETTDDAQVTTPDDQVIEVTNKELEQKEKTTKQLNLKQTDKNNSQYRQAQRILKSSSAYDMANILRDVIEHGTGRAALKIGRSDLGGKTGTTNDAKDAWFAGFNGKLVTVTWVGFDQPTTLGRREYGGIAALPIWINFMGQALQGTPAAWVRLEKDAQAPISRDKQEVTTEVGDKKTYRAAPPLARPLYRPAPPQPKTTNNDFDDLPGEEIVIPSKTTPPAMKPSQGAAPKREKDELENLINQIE
The test can be described thus: Bocillin-FL fluorescence polarization competition binding, A. baumannii PBP1a. The settings on record: fluorescence polarization competition binding assay using Bocillin-FL; read-out: A. baumannii PBP1a Potency. Put shortly:
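Purified PBP was preincubated with inhibitor (E. coli PBP3 1.5 μM, 30 min; P. aeruginosa PBP3 0.75 μM, A. baumannii PBP3 0.2 μM and PBP1a 1 μM, 15 min), then Bocillin-FL (0.1 μM; 0.05 μM for PBP1a) added and FP read up to 60 min. EC50 = 50% loss of bound probe.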
For orientation: Fluorescence polarisation rises when a labelled molecule tumbles more slowly, as on binding a larger partner.

In test [2] the test system is N. gonorrhoeae ATCC 49226. The test can be described thus: Liquid broth MIC in Fastidious broth. Particulars: Neisseria gonorrhoeae, ATCC49226, read-out: Minimum Inhibitory Concentration, ATCC 49226.
For another test, the system named is P. aeruginosa CDC-0054. The test can be described thus: microbe, parasite or virus in culture. The settings on record: Pseudomonas aeruginosa, CDC0054, read-out: Minimum inhibitory concentration, P. aeruginosa CDC-0054. In kind it is cell-based.

In brackets after ≈: the same amount, converted by molar mass.

Regarding `O=C(NCCCN1CCN(C(=O)NC(C(=O)N[C@H]2Cc3ccc(F)c(C(=O)O)c3OB2O)c2cc(F)c(O)c(O)c2Cl)C1=O)c1ccncc1` (stereo partly drawn) [Example 256, (3R)-3-(2-(2-chloro-5-fluoro-3,4-dihydroxyphenyl)-2-(3-(3-(isonicotinamido)propyl)-2-oxoimidazolidine-1-carboxamido)acetamido)-7-fluoro-2-hydroxy-3,4-dihydro-2H-benzo[e][1,2]oxaborinine-8-carboxylic acid], the MIC in the test with A. baumannii CDC-0045 is less than 1 µg/mL; in the test with A. baumannii ATCC 17978, less than 1 µg/mL; in test [2], 16 to 32 µg/mL (≈ 22.3 to 44.6 µM); in the test on P. aeruginosa CDC-0054 it was 2 to 4 µg/mL (≈ 2.79 to 5.58 µM). Further, in test [1], the IC50 was greater than 250 µM.

For the compound `O=C(NCCCN1CCN(C(=O)NC(C(=O)N[C@H]2Cc3ccc(F)c(C(=O)O)c3OB2O)c2cc(F)c(O)c(O)c2Cl)C1=O)c1nccs1` (stereo partly drawn) [Example 257, (3R)-3-(2-(2-chloro-5-fluoro-3,4-dihydroxyphenyl)-2-(2-oxo-3-(3-(thiazole-2-carboxamido)propyl)imidazolidine-1-carboxamido)acetamido)-7-fluoro-2-hydroxy-3,4-dihydro-2H-benzo[e][1,2]oxaborinine-8-carboxylic acid], the MIC with A. baumannii CDC-0045 is less than 1 µg/mL; in the test with A. baumannii ATCC 17978, less than 1 µg/mL; in test [2] it was greater than 64 µg/mL; in the test on P. aeruginosa CDC-0054, 2 to 4 µg/mL (≈ 2.77 to 5.53 µM). The IC50 in test [1] was greater than 250 µM.

Regarding `O=C(NCCCN1CCN(C(=O)N[C@@H](C(=O)N[C@H]2Cc3ccc(F)c(C(=O)O)c3OB2O)c2cc(F)c(O)c(O)c2Cl)C1=O)Nc1cccc(O)c1` [Example 258, (R)-3-((R)-2-(2-chloro-5-fluoro-3,4-dihydroxyphenyl)-2-(3-(3-(3-(3-hydroxyphenyl)ureido)propyl)-2-oxoimidazolidine-1-carboxamido)acetamido)-7-fluoro-2-hydroxy-3,4-dihydro-2H-benzo[e][1,2]oxaborinine-8-carboxylic acid], the MIC was less than 1 µg/mL with A. baumannii CDC-0045, less than 1 µg/mL with A. baumannii ATCC 17978, 4 to 8 µg/mL (≈ 5.36 to 10.7 µM) in test [2] and less than 1 µg/mL in the test on P. aeruginosa CDC-0054. For the same compound, the IC50 in test [1] was greater than 250 µM.

As for `O=C(NCCCN1CCN(C(=O)NC(C(=O)N[C@H]2Cc3ccc(F)c(C(=O)O)c3OB2O)c2cc(F)c(O)c(O)c2Cl)C1=O)Nc1cccnc1` (stereo partly drawn) [Example 259, (3R)-3-(2-(2-chloro-5-fluoro-3,4-dihydroxyphenyl)-2-(2-oxo-3-(3-(3-(pyridin-3-yl)ureido)propyl)imidazolidine-1-carboxamido)acetamido)-7-fluoro-2-hydroxy-3,4-dihydro-2H-benzo[e][1,2]oxaborinine-8-carboxylic acid], the MIC with A. baumannii CDC-0045 is less than 1 µg/mL; in the test on A. baumannii ATCC 17978, less than 1 µg/mL; in test [2], 16 to 32 µg/mL (≈ 21.9 to 43.7 µM); in the test on P. aeruginosa CDC-0054, 2 to 4 µg/mL (≈ 2.73 to 5.47 µM). For the same compound, the IC50 in test [1] is greater than 250 µM.

For `O=C(NCCS(=O)(=O)N1CCN(C(=O)NC(C(=O)N[C@H]2Cc3ccc(F)c(C(=O)O)c3OB2O)c2cc(F)c(O)c(O)c2Cl)C1=O)c1ccccc1` (stereo partly drawn) [Example 260, (3R)-3-(2-(3-((2-benzamidoethyl)sulfonyl)-2-oxoimidazolidine-1-carboxamido)-2-(2-chloro-5-fluoro-3,4-dihydroxyphenyl)acetamido)-7-fluoro-2-hydroxy-3,4-dihydro-2H-benzo[e][1,2]oxaborinine-8-carboxylic acid], the MIC is less than 1 µg/mL in the test with A. baumannii CDC-0045, less than 1 µg/mL in the test with A. baumannii ATCC 17978, 16 to 32 µg/mL (≈ 20.9 to 41.8 µM) in test [2] and 2 to 4 µg/mL (≈ 2.61 to 5.22 µM) in the test with P. aeruginosa CDC-0054. The IC50 in test [1] was greater than 250 µM.

`O=C(NCCS(=O)(=O)N1CCN(C(=O)NC(C(=O)N[C@H]2Cc3ccc(F)c(C(=O)O)c3OB2O)c2cc(F)c(O)c(O)c2Cl)C1=O)c1cccc(O)c1` (stereo partly drawn) [Example 261, (3R)-3-(2-(2-chloro-5-fluoro-3,4-dihydroxyphenyl)-2-(3-((2-(3-hydroxybenzamido)ethyl)sulfonyl)-2-oxoimidazolidine-1-carboxamido)acetamido)-7-fluoro-2-hydroxy-3,4-dihydro-2H-benzo[e][1,2]oxaborinine-8-carboxylic acid]: the MIC with A. baumannii CDC-0045 was less than 1 µg/mL; in the test on A. baumannii ATCC 17978, less than 1 µg/mL; in test [2] it was 16 to 32 µg/mL (≈ 20.5 to 40.9 µM); in the test on P. aeruginosa CDC-0054, 2 to 4 µg/mL (≈ 2.56 to 5.12 µM). The IC50 in test [1] is greater than 250 µM.

As to `O=C(NCCS(=O)(=O)N1CCN(C(=O)NC(C(=O)N[C@H]2Cc3ccc(F)c(C(=O)O)c3OB2O)c2cc(F)c(O)c(O)c2Cl)C1=O)c1cccnc1` (stereo partly drawn) [Example 262, (3R)-3-(2-(2-chloro-5-fluoro-3,4-dihydroxyphenyl)-2-(3-((2-(nicotinamido)ethyl)sulfonyl)-2-oxoimidazolidine-1-carboxamido)acetamido)-7-fluoro-2-hydroxy-3,4-dihydro-2H-benzo[e][1,2]oxaborinine-8-carboxylic acid], the MIC in the test with A. baumannii CDC-0045 is less than 1 µg/mL; in the test with A. baumannii ATCC 17978, less than 1 µg/mL; in test [2], 16 to 32 µg/mL (≈ 20.9 to 41.7 µM); in the test on P. aeruginosa CDC-0054 it was 2 to 4 µg/mL (≈ 2.61 to 5.22 µM). The IC50 in test [1] is greater than 250 µM.

For `O=C(NCCS(=O)(=O)N1CCN(C(=O)N[C@H](C(=O)N[C@H]2Cc3ccc(F)c(C(=O)O)c3OB2O)c2cc(F)c(O)c(O)c2Cl)C1=O)c1nccs1` [Example 263, (R)-3-((S)-2-(2-chloro-5-fluoro-3,4-dihydroxyphenyl)-2-(2-oxo-3-((2-(thiazole-2-carboxamido)ethyl)sulfonyl)imidazolidine-1-carboxamido)acetamido)-7-fluoro-2-hydroxy-3,4-dihydro-2H-benzo[e][1,2]oxaborinine-8-carboxylic acid], the MIC in the test on A. baumannii CDC-0045 is 32 to 64 µg/mL (≈ 41.4 to 82.8 µM); with A. baumannii ATCC 17978, less than 1 µg/mL; in test [2], greater than 64 µg/mL; in the test with P. aeruginosa CDC-0054, 8 to 16 µg/mL (≈ 10.4 to 20.7 µM). Also, the IC50 in test [1] was greater than 250 µM.

Take `O=C(NCCS(=O)(=O)N1CCN(C(=O)N[C@@H](C(=O)N[C@H]2Cc3ccc(F)c(C(=O)O)c3OB2O)c2cc(F)c(O)c(O)c2Cl)C1=O)c1nccs1` [Example 264, (R)-3-((R)-2-(2-chloro-5-fluoro-3,4-dihydroxyphenyl)-2-(2-oxo-3-((2-(thiazole-2-carboxamido)ethyl)sulfonyl)imidazolidine-1-carboxamido)acetamido)-7-fluoro-2-hydroxy-3,4-dihydro-2H-benzo[e][1,2]oxaborinine-8-carboxylic acid]: the MIC was less than 1 µg/mL with A. baumannii CDC-0045, less than 1 µg/mL in the test on A. baumannii ATCC 17978, 16 to 32 µg/mL (≈ 20.7 to 41.4 µM) in test [2] and less than 1 µg/mL with P. aeruginosa CDC-0054. Moreover, the IC50 in test [1] was greater than 250 µM.

For the compound `O=C(O)c1c(F)ccc2c1OB(O)[C@@H](NC(=O)C(NC(=O)N1CCN(S(=O)(=O)CCNC(=O)[C@@H]3CCCN3)C1=O)c1cc(F)c(O)c(O)c1Cl)C2` (stereo partly drawn) [Example 265, (3R)-3-(2-(2-chloro-5-fluoro-3,4-dihydroxyphenyl)-2-(2-oxo-3-((2-((S)-pyrrolidine-2-carboxamido)ethyl)sulfonyl)imidazolidine-1-carboxamido)acetamido)-7-fluoro-2-hydroxy-3,4-dihydro-2H-benzo[e][1,2]oxaborinine-8-carboxylic acid], the MIC with A. baumannii CDC-0045 was less than 1 µg/mL; in the test on A. baumannii ATCC 17978 it was less than 1 µg/mL; in test [2], 16 to 32 µg/mL (≈ 21.1 to 42.2 µM); with P. aeruginosa CDC-0054, 2 to 4 µg/mL (≈ 2.64 to 5.27 µM). The IC50 in test [1] is greater than 250 µM.

For `O=C(NCCS(=O)(=O)N1CCN(C(=O)NC(C(=O)N[C@H]2Cc3ccc(F)c(C(=O)O)c3OB2O)c2cc(F)c(O)c(O)c2Cl)C1=O)Nc1cccc(O)c1` (stereo partly drawn) [Example 266, (3R)-3-(2-(2-chloro-5-fluoro-3,4-dihydroxyphenyl)-2-(3-((2-(3-(3-hydroxyphenyl)ureido)ethyl)sulfonyl)-2-oxoimidazolidine-1-carboxamido)acetamido)-7-fluoro-2-hydroxy-3,4-dihydro-2H-benzo[e][1,2]oxaborinine-8-carboxylic acid], the MIC with A. baumannii CDC-0045 is less than 1 µg/mL; in the test on A. baumannii ATCC 17978, less than 1 µg/mL; in test [2], 16 to 32 µg/mL (≈ 20.1 to 40.2 µM); in the test on P. aeruginosa CDC-0054 it was 2 to 4 µg/mL (≈ 2.51 to 5.02 µM). The IC50 in test [1] was greater than 250 µM.

The values above are taken from patent US20240270762A1, “PENICILLIN-BINDING PROTEIN INHIBITORS” (priority 2021, published 2024).
